Experimental findings from US10335409B2 (priority 2012, dated 2019) are described below.

Usually EC50 stands for the concentration that produces a half-maximal response. The Ki is the dissociation constant of the complex between target and ligand, obtained from inhibition or displacement. A higher Ki goes with lower affinity.

For experiment [1], the system named is genotype 1a NS3/4a protease inhibitor resistant variant R155K transient HCV replicon in Huh-7-derived cells. Put plainly: Transient-transfected HCV replicon EC50, genotype 1a R155K. In kind it is cell-based, hepatitis C virus. As to conditions: Hepatitis C virus, 72 h, read-out: EC50 1A R155K, transient-transfected replicon genotype 1a R155K resistant variant, 72 h. Background: Replicon systems follow genome replication, usually without infectious particles.

The test system of experiment [2] is genotype 3a (S52) wild type transient HCV replicon in Huh-7-derived cells. Put plainly: Transient-transfected HCV replicon EC50, genotype 3a wild type. In kind it is cell-based, hepatitis C virus. Conditions: Hepatitis C virus; transient-transfected replicon genotype 3a wild type, 72 h; read-out: EC50 3A WT.
In experiment [3] the test system is genotype 4a (ED43) stable HCV replicon in Huh-7-derived cells. Put plainly: Stable subgenomic HCV replicon EC50, genotype 4a (Renilla luciferase). In kind it is cell-based, hepatitis C virus. Conditions: Hepatitis C virus, 72 h, read-out: EC50 4A RLUC. A digest of the protocol: (§1)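 Compounds, three-fold diluted, were applied to Huh-7-derived cells harbouring luciferase replicons (genotype 1a H77, 1b Con1, 2a JFH-1, 4a ED43, with strain-specific adaptive mutations). Seventy-two hours later, intracellular replication was gauged by Renilla luciferase activity and EC50 derived by regression.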

For experiment [4], the system named is genotype 1b NS3/4a protease inhibitor resistant variant D168A transient HCV replicon in Huh-7-derived cells. Briefly: Transient-transfected HCV replicon EC50, genotype 1b D168A. It counts as cell-based, hepatitis C virus. As to conditions: Hepatitis C virus, 72 h, read-out: EC50 1B D168A, transient-transfected replicon genotype 1b D168A resistant variant, 72 h.

The test system of experiment [5] is genotype 3a (S52) stable HCV replicon in Huh-7-derived cells. Put plainly: Stable subgenomic HCV replicon EC50, genotype 3a (Renilla luciferase). It counts as cell-based, hepatitis C virus. As to conditions: Hepatitis C virus, 72 h, read-out: EC50 3A RLUC.
The target of experiment [6] is HCV NS3 protease domain genotype 3a (Hepatitis C virus genotype 3a, UniProt Q81258). Briefly: Ki determination, NS3 protease genotype 3a (fluorogenic depsipeptide substrate). It counts as biochemical. Conditions: 200 pM enzyme, NS4A peptide. In a few lines: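 The NS3 protease domain (aa 1-181) with 20 μM NS4A peptide was used at 50 pM with 4 μM substrate (1b) or at 200 pM with 2 μM substrate (3a). Inhibitors (100 nM-5 pM) were pre-incubated 1 h at room temperature in HEPES/glycerol/DTT buffer with 10% DMSO. Steady-state rates (90-120 min) gave Ki via the Morrison equation, corrected for active enzyme and [S]/Km.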

Experiment [7] relates to genotype 1a (H77) stable HCV replicon in Huh-7-derived cells. Put plainly: Stable subgenomic HCV replicon EC50, genotype 1a (Renilla luciferase). Conditions: Hepatitis C virus, stable replicon genotype 1a, 72 h, read-out: EC50 1A RLUC. It counts as cell-based, hepatitis C virus. A digest of the protocol:
as §1

In experiment [8] the test system is genotype 1b (Con1) wild type transient HCV replicon in Huh-7-derived cells. Briefly: Transient-transfected HCV replicon EC50, genotype 1b wild type. It counts as cell-based, hepatitis C virus. Conditions: Hepatitis C virus, 72 h, transient-transfected replicon genotype 1b wild type, read-out: EC50 1B WT.
The test system of experiment [9] is genotype 1b (Con1) stable HCV replicon in Huh-7-derived cells. Briefly: Stable subgenomic HCV replicon EC50, genotype 1b (Renilla luciferase). In kind it is cell-based, hepatitis C virus. Conditions: Hepatitis C virus, stable replicon genotype 1b, 72 h, read-out: EC50 1B RLUC. In a few lines:
as §1

Experiment [10] relates to genotype 1a (H77) wild type transient HCV replicon in Huh-7-derived cells. Briefly: Transient-transfected HCV replicon EC50, genotype 1a wild type. As to conditions: Hepatitis C virus, 72 h, transient-transfected replicon genotype 1a wild type, read-out: EC50 1A WT. In kind it is cell-based, hepatitis C virus.
Experiment [11] relates to genotype 2a (JFH-1) stable HCV replicon in Huh-7-derived cells. Briefly: Stable subgenomic HCV replicon EC50, genotype 2a (Renilla luciferase). As to conditions: Hepatitis C virus, stable replicon genotype 2a, 72 h, read-out: EC50 2A RLUC. In kind it is cell-based, hepatitis C virus. A digest of the protocol:
as §1

HCV NS3 protease domain genotype 3a, sequence (Q81258 whole entry, looked up, the tested form may be a part): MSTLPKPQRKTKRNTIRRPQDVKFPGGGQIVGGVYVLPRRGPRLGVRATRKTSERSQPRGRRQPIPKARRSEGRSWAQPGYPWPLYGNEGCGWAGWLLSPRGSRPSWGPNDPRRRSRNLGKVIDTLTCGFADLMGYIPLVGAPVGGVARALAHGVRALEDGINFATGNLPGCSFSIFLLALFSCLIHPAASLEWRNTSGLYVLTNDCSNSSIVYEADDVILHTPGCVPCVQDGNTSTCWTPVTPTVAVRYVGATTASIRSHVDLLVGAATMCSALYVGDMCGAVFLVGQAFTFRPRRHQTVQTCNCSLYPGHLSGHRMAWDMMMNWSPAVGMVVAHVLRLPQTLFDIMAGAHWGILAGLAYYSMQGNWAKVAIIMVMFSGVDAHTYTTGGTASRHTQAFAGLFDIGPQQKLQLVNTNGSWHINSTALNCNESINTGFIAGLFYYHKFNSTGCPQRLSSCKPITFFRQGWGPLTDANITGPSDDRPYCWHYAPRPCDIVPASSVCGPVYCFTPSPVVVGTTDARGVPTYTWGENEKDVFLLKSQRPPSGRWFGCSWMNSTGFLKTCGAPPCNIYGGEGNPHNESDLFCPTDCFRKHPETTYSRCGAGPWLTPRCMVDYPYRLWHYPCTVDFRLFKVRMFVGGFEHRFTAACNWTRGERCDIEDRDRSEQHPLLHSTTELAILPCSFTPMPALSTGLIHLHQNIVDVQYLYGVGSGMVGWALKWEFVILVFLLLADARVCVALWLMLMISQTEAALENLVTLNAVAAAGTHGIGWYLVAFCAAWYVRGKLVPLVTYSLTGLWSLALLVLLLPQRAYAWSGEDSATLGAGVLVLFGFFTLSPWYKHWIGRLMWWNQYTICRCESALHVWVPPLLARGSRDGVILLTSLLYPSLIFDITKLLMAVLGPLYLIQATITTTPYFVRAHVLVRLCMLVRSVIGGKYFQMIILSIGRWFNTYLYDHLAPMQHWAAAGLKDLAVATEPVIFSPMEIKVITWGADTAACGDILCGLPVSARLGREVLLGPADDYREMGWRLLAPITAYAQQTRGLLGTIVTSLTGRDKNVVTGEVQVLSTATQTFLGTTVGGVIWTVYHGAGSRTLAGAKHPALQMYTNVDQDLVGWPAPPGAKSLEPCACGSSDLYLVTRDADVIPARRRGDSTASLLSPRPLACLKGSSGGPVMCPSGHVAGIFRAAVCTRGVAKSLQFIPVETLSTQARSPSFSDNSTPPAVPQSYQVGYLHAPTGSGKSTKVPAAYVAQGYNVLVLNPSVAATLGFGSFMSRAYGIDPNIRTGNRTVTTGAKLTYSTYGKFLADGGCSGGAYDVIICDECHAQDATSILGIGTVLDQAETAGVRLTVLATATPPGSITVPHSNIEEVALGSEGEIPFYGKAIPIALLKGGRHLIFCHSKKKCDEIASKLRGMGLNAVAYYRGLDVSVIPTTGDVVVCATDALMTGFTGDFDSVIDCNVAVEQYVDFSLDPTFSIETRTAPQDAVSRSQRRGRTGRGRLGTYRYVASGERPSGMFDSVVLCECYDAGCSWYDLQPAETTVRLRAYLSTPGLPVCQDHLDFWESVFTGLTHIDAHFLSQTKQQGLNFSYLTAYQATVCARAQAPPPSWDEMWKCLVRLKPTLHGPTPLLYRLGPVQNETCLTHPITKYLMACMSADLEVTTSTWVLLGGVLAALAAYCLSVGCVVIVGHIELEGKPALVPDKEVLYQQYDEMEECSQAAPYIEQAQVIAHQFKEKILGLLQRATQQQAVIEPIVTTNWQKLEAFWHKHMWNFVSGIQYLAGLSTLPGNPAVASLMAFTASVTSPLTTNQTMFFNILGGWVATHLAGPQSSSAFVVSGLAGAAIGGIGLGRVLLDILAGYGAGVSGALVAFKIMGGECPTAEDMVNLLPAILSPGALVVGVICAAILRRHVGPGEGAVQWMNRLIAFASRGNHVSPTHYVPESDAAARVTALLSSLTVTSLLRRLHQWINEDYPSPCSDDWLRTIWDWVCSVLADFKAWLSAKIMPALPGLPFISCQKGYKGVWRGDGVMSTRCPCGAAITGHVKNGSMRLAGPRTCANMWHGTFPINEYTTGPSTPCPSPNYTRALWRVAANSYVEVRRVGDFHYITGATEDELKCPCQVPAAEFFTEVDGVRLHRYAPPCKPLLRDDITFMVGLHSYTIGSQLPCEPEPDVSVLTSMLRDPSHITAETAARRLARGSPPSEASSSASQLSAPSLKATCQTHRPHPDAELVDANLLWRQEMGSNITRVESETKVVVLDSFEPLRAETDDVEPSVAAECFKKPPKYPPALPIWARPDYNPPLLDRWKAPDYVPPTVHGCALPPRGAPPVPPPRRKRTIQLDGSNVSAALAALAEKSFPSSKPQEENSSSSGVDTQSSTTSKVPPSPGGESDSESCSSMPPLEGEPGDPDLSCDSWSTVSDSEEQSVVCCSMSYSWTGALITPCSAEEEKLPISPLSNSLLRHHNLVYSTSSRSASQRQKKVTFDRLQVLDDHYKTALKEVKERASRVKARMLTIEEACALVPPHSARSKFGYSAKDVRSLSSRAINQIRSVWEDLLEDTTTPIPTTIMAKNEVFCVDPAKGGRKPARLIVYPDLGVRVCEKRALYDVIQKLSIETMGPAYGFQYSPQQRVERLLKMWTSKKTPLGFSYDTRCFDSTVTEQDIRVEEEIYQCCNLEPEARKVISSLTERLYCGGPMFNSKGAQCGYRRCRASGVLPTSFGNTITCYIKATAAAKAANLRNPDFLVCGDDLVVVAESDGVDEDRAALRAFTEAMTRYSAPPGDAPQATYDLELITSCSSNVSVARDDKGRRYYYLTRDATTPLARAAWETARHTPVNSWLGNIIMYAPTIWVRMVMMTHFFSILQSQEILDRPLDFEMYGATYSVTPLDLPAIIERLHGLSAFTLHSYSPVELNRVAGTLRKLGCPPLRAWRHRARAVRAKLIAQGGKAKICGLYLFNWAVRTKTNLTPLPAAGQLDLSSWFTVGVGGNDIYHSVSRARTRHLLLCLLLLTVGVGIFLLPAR

`COc1ccc2nc3c(nc2c1)O[C@H]1CN(C(=O)[C@H](C(C)(C)C)NC(=O)O[C@]2(C)C[C@H]2CCCCC3(F)F)[C@H](C(=O)N[C@]2(C(=O)NS(=O)(=O)C3(C)CC3)C[C@H]2C(F)F)[C@@H]1C` [Example 76, (1aR,5S,8S,9S,10R,22aR)-5-tert-butyl-N-[(1R,2R)-2-(difluoromethyl)-1-{[(1-methylcyclopropyl)sulfonyl]carbamoyl}cyclopropyl]-18,18-difluoro-14-methoxy-1a,9-dimethyl-3,6-dioxo-1,1a,3,4,5,6,9,10,18,19,20,21,22,22a-tetradecahydro-8H-7,10-methanocyclopropa[18,19][1,10,3,6]dioxadiazacyclononadecino[11,12-b]quinoxaline-8-carboxamide]: the EC50 in experiment [1] came out at 2.1 nM; in [2], 3.4 nM; in experiment [3], 1.9 nM; in experiment [4] it was 2.8 nM; in experiment [5], 9 nM; in experiment [7] it was 2.4 nM. Moreover, the EC50 was found to be 1 nM in experiment [8], 2.2 nM in experiment [9], 2 nM in experiment [10] and 2.4 nM in experiment [11]. The compound further yielded a Ki in experiment [6] of 0.06 nM.

`CC[C@@H]1[C@@H]2CN(C(=O)[C@H](C(C)(C)C)NC(=O)O[C@@H]3C[C@H]3CCCC3CC3c3nc4ccc(OC)cc4nc3O2)[C@@H]1C(=O)N[C@]1(C(=O)NS(=O)(=O)C2(C)CC2)C[C@H]1C(F)F` (stereo partly drawn) [Example 36, (1aR,5S,8S,9S,10R,21aR)-5-tert-butyl-N-[(1R,2R)-2-(difluoromethyl)-1-{[(1-methylcyclopropyl)sulfonyl]carbamoyl}cyclopropyl]-9-ethyl-14-methoxy-3,6-dioxo-1a,3,4,5,6,9,10,17b,18,18a, 19,20,21,21a-tetradecahydro-1H,8H-7,10-methanodicyclopropa[13,14:18,19][1,10,3,6]dioxadiazacyclononadecino[11,12-b]quinoxaline-8-carboxamide]: the EC50 came to 271 nM in experiment [1]; 128 nM in experiment [2]; 9.1 nM in [3]; 333 nM in experiment [4]; 585 nM in [5]; 23 nM in experiment [7]. Also, the EC50 turned out to be 9.4 nM in [8], 14 nM in experiment [9], 16 nM in [10] and 53 nM in experiment [11]. This compound also showed an inhibitory constant (Ki) in experiment [6] of 1.7 nM.

Take `CC[C@@H]1[C@@H]2CN(C(=O)[C@H](C(C)(C)C)NC(=O)O[C@]3(C)C[C@H]3CCCCC(F)(F)c3nc4ccc(OC)cc4nc3O2)[C@@H]1C(=O)N[C@]1(C(=O)NS(=O)(=O)C2(C)CC2)C[C@H]1C(F)F` [Example 63, (1aR,5S,8S,9S,10R,22aR)-5-tert-butyl-N-[(1R,2R)-2-(difluoromethyl)-1-{[(1-methylcyclopropyl)sulfonyl]carbamoyl}cyclopropyl]-9-ethyl-18,18-difluoro-14-methoxy-1a-methyl-3,6-dioxo-1,1a,3,4,5,6,9,10,18,19,20,21,22,22a-tetradecahydro-8H-7,10-methanocyclopropa[18,19][1,10,3,6]dioxadiazacyclononadecino[11,12-b]quinoxaline-8-carboxamide]: the EC50 in [1] was 4 nM; in experiment [2], 6.9 nM; in experiment [3], 3.2 nM; in [4], 3.4 nM; in experiment [5], 11 nM; in experiment [7] it was 4.2 nM. The EC50 in [8] stood at 2.1 nM; in [9] it was 2.9 nM; in experiment [10], 4.1 nM; in experiment [11], 3.2 nM. Besides, the Ki in experiment [6] is 0.01 nM.
